# Test results reported in US5256788A, “Moranoline derivatives and their production and the use of moranoline and its derivatives as a stabilizing agent for enzymes” (Nippon Shinyaku Co. Ltd., priority 1989, dated 1993).
# Key:
# immobilized CGTase = molecular target: T1, immobilized CGTase (Geobacillus stearothermophilus, UniProt P31797); assay: Stabilization of immobilized CGTase, sugar transfer continuous reaction of N-methylmoranoline; type: biochemical, Bacillus stearothermophilus; details: 3360 h; after 140 days, 55° C., 1.5 w/v% N-methylmoranoline and 9 w/v% soluble starch, 160 ml/day; read-out: activity retained
# T1 construct: purchased Hayashibara Biochemical Research Institute
# T1 sequence (P31797 32-711): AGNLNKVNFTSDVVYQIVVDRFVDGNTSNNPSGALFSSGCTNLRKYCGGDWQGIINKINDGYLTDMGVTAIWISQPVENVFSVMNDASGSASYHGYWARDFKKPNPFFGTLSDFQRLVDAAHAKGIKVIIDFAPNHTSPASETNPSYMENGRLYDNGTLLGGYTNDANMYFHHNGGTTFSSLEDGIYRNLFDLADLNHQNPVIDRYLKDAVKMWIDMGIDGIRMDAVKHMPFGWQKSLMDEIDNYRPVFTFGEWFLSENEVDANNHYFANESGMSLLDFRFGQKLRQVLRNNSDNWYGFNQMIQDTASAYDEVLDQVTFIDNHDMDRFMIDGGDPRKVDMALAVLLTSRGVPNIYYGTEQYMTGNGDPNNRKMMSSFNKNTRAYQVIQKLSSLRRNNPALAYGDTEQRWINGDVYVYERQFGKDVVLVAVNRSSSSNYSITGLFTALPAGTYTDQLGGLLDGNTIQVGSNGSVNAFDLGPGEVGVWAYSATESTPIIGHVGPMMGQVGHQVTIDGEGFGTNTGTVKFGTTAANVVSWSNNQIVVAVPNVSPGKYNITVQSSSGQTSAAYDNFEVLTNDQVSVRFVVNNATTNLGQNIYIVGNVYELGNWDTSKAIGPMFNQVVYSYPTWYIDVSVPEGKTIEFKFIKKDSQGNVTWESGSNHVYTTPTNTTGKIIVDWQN
# Procedure: (§1) The immobilized CGTase, 20 ml, obtained in Reference Example 1 was packed in a column having a diameter of 1 cm equipped with a jacket and a solution with the pH being not adjusted containing 1.5 w/v% of N-methylmoranoline and 9 w/v% of soluble starch was continuously passed through the column at 55° C. in a passing velocity of 160 ml/day to react them, whereby the reaction progress rate of the passing liquid was determined with passage of time. The reaction progress rate and activity retention rate were determined in a manner similar to Reference 4. The results reveal that even after 140 days, almost 100% of the activity was retained.
# as §1, with “Example A” for “Example 1”, “to Example 27.” for “to Reference 4. The results reveal that even after 140 days, almost 100% of the activity was retained.”
# glucoamylase = molecular target: T2, glucoamylase (Rhizopus arrhizus, UniProt P07683); assay: Stabilization of GA (aqueous solution) by moranoline, N-methylmoranoline; type: biochemical, Rhizopus niveus
# T2 construct: maltose substrate
# T2 sequence (P07683 26-604): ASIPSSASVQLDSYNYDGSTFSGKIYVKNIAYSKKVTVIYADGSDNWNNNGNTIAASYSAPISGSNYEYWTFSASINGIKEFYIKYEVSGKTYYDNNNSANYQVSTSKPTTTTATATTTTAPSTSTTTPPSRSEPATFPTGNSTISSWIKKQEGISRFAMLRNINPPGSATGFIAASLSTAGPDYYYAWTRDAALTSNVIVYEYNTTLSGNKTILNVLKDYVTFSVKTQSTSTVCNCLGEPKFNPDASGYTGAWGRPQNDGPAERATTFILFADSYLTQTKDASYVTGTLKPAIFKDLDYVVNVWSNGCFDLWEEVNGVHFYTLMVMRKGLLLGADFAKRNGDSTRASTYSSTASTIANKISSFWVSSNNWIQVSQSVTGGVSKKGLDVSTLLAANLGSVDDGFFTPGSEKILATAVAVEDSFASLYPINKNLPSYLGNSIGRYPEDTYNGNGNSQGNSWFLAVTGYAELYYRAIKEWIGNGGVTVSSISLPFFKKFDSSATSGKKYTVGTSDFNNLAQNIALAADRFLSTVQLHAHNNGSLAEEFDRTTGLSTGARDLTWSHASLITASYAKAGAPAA
# Procedure: As the enzyme, Rhizopus niveus-derived reagent glucoamylase manufactured by Seikagaku Kogyo Co., Ltd. was used.
# After 5 mg of the enzyme was dissolved in 1 ml of 0.1M acetate buffer solution (pH 5.0), moranoline and N-methylmoranoline were dissolved in the solution in a concentration of 6000 μg/ml. The solution was charged in a test tube with a screw stopper followed by incubation at 50° C. Each enzyme solution was diluted with 0.1M acetate buffer solution (pH 5.0) to 100-fold and 100 μl of the dilution was taken. After 400 μl of 5% maltose solution (0.05M acetate buffer solution, pH 4.6) was added thereto, the mixture was reacted at 40° C. for 20 minutes. […] Thereafter, the system was ice cooled and absorbency was measured at 500 nm to determine the glucose amount. […] When the initial enzyme activity (amount of glucose produced) was made […], relative enzyme activity was determined. […]
# After 5 mg of the enzyme was dissolved in 1 ml of 0.1M acetate buffer solution (pH 5.0), moranoline and N-methylmoranoline were dissolved in the solution in a concentration of 6000 μg/ml. […] Thereafter, the system was ice cooled and absorbancy was measured at 500 nm to determine the glucose amount. […] When the initial enzyme activity (amount of glucose produced) was made 100, relative enzyme activity was determined. […]
# β-glucosidase = assay: Stabilization of β-glucosidase by moranoline and N-methylmoranoline; type: biochemical; details: 6 mg/ml of the hydrochloride, kept at 60° C.
# Procedure: Test samples were (1) 1 ml of 0.2M buffer solution of β-glucosidase (300 μg/ml) alone, (2) 1 ml of 0.2M buffer solution of β-glucosidase (300 μg/ml) supplemented with 6 mg/ml of moranoline hydrochloride and, (3) 1 ml of 0.2M buffer solution of β-glucosidase (300 μg/ml) supplemented with 6 mg/ml of N-methylmoranoline hydrochloride. These test samples were kept at 60° C. and the residual enzyme activity was measured with passage of time.
# For determination of the enzyme activity, there was used a method measuring absorbancy at 400 nm using […] as a substrate.
# That is, 200 μl of 0.014M p-nitrophenyl-β-D-glucoside, 200 μl of the enzyme solution taken from each sample for sampling with passage of time which was appropriately diluted, and 600 μl of 0.2M acetate buffer solution (pH 4.5) were reacted at 30° C. for 15 minutes. After 2 ml of 0.1M disodium carbonate was added thereto to terminate the reaction, a color was formed and the color was measured at 400 nm. When absorbancy at the initiation of the reaction was made 100, relative absorbancy in each time was defined to be residual activity.
structure (smiles),measurement,setting,value
CN1C[C@H](O)[C@@H](O)[C@H](O)[C@H]1CO [N-methylmoranoline],activity at 15000 µg/mL,immobilized CGTase,~100%
same,inhibition of the enzyme activity of glucoamylase,glucoamylase,inhibit the enzyme activity of glucoamylase
same,"stabilizing effect (residual activity, FIG. 4)",β-glucosidase,stabilizing effect
